Data set [1] relates to Puccinia recondita f. sp. tritici. The experiment in a line: Fungicidal activity against Puccinia recondita f. sp. tritici / wheat / leaf disc preventative (brown rust). Format: in vivo. The conditions noted are these: foliar, 200 ppm in the applied formulation, wheat leaf segments cv. Kanzler, inoculated 1 day after application, assessed 7 to 9 days after application, compared to untreated, read-out: disease control. On the procedure: Leaf disks or leaf segments of various plant species are cut from plants grown in a greenhouse. The cut leaf disks or segments are placed in multiwell plates (24-well format) onto water agar. The leaf disks are sprayed with a test solution before (preventative) or after (curative) inoculation. Compounds to be tested are prepared as DMSO solutions (max. 10 mg/mL) which are diluted to the appropriate concentration with 0.025% Tween20 just before spraying. The inoculated leaf disks or segments are incubated under defined conditions (temperature, relative humidity, light, etc.) according to the respective test system. A single evaluation of disease level is carried out 3 to 14 days after inoculation, depending on the pathosystem. Percent disease control relative to the untreated check leaf disks or segments is then calculated. Wheat leaf segments cv. Kanzler were placed on agar in multiwell plates (24-well format) and sprayed with the formulated test compound diluted in water. The leaf disks were inoculated with a spore suspension of the fungus 1 day after application. The inoculated leaf segments were incubated at 19° C. and 75% relative humidity (rh) under a light regime of 12 hours light/12 hours darkness in a climate cabinet and the activity of a compound was assessed as percent disease control compared to untreated when an appropriate level of disease damage appears in untreated check leaf segments (7 to 9 days after application). The following compounds at 200 ppm in the applied formulation give at least 80% disease control in this test when compared to untreated control leaf disks under the same conditions, which show extensive disease development.

A further data set relates to Phakopsora pachyrhizi. The experiment in a line: Fungicidal activity against Phakopsora pachyrhizi / soybean / leaf disc preventative (Asian soybean rust). The class given is in vivo. As to conditions: foliar, 200 ppm in the applied formulation, soybean leaf disks, inoculated one day after application, assessed 12 to 14 days after application, compared to untreated, read-out: disease control. On the procedure: Leaf disks or leaf segments of various plant species are cut from plants grown in a greenhouse. The cut leaf disks or segments are placed in multiwell plates (24-well format) onto water agar. The leaf disks are sprayed with a test solution before (preventative) or after (curative) inoculation. Compounds to be tested are prepared as DMSO solutions (max. 10 mg/mL) which are diluted to the appropriate concentration with 0.025% Tween20 just before spraying. The inoculated leaf disks or segments are incubated under defined conditions (temperature, relative humidity, light, etc.) according to the respective test system. A single evaluation of disease level is carried out 3 to 14 days after inoculation, depending on the pathosystem. Percent disease control relative to the untreated check leaf disks or segments is then calculated. Soybean leaf disks are placed on water agar in multiwell plates (24-well format) and sprayed with the formulated test compound diluted in water. One day after application leaf discs are inoculated by spraying a spore suspension on the lower leaf surface. After an incubation period in a climate cabinet of 24-36 hours in darkness at 20° C. and 75% rh leaf disc are kept at 20° C. with 12 hours light/day and 75% rh. The activity of a compound is assessed as percent disease control compared to untreated when an appropriate level of disease damage appears in untreated check leaf disks (12 to 14 days after application). The following compounds at 200 ppm in the applied formulation give at least 80% disease control in this test when compared to untreated control leaf disks under the same conditions, which show extensive disease development.

Data set [2] has as its system Glomerella lagenarium (Colletotrichum lagenarium). The experiment in a line: Fungicidal activity against Glomerella lagenarium (Colletotrichum lagenarium) liquid culture / cucumber / preventative (anthracnose). As to conditions: Colletotrichum orbiculare; 20 ppm in the applied formulation; liquid culture in PDB, 24° C.; 3 to 4 days after application; compared to untreated control; read-out: disease control (inhibition of growth measured photometrically). The class given is cell-based. As to the method: Mycelia fragments or conidia suspensions of a fungus prepared either freshly from liquid cultures of the fungus or from cryogenic storage, are directly mixed into nutrient broth. DMSO solutions of the test compound (max. 10 mg/mL) are diluted with 0.025% Tween20 by a factor of 50 and 10 μL of this solution is pipetted into a microtiter plate (96-well format). The nutrient broth containing the fungal spores/mycelia fragments is then added to give an end concentration of the tested compound. The test plates are incubated in the dark at 24° C. and 96% relative humidity (rh). The inhibition of fungal growth is determined photometrically after 2 to 7 days, depending on the pathosystem, and percent antifungal activity relative to the untreated check is calculated. Conidia of the fungus from cryogenic storage are directly mixed into nutrient broth (PDB—potato dextrose broth). After placing a (DMSO) solution of test compound into a microtiter plate (96-well format), the nutrient broth containing the fungal spores is added. The test plates are incubated at 24° C. and the inhibition of growth is measured photometrically 3 to 4 days after application. The following compounds at 20 ppm in the applied formulation give at least 80% disease control in this test when compared to untreated control under the same conditions, which show extensive disease development.

The subject of data set [3] is Puccinia recondita f. sp. tritici. The experiment in a line: Fungicidal activity against Puccinia recondita f. sp. tritici / wheat / leaf disc curative (brown rust). The class given is in vivo. As to conditions: foliar, 200 ppm in the applied formulation, wheat leaf segments cv. Kanzler, applied 1 day after inoculation, assessed 6 to 8 days after application, compared to untreated, read-out: disease control. As to the method: Leaf disks or leaf segments of various plant species are cut from plants grown in a greenhouse. The cut leaf disks or segments are placed in multiwell plates (24-well format) onto water agar. The leaf disks are sprayed with a test solution before (preventative) or after (curative) inoculation. Compounds to be tested are prepared as DMSO solutions (max. 10 mg/mL) which are diluted to the appropriate concentration with 0.025% Tween20 just before spraying. The inoculated leaf disks or segments are incubated under defined conditions (temperature, relative humidity, light, etc.) according to the respective test system. A single evaluation of disease level is carried out 3 to 14 days after inoculation, depending on the pathosystem. Percent disease control relative to the untreated check leaf disks or segments is then calculated. Wheat leaf segments cv. Kanzler are placed on agar in multiwell plates (24-well format). The leaf segments are then inoculated with a spore suspension of the fungus. Plates were stored in darkness at 19° C. and 75% relative humidity. The formulated test compound diluted in water was applied 1 day after inoculation. The leaf segments were incubated at 19° C. and 75% relative humidity under a light regime of 12 hours light/12 hours darkness in a climate cabinet and the activity of a compound was assessed as percent disease control compared to untreated when an appropriate level of disease damage appears in untreated check leaf segments (6 to 8 days after application). The following compounds at 200 ppm in the applied formulation give at least 80% disease control in this test when compared to untreated control leaf disks under the same conditions, which show extensive disease development.

`NC(=S)c1nccn1Cc1ccc(-c2noc(C(F)(F)F)n2)s1` [Compound 1.12, 1-[[5-[5-(trifluoromethyl)-1,2,4-oxadiazol-3-yl]-2-thienyl]methyl] imidazole-2-carbothioamide] came in with a melting point of 170 to 172 °C. In addition, in data set [1], the pest or weed control at 200 ppm was at least 80%. For the same compound, in the data set with Phakopsora pachyrhizi, the pest or weed control at 200 ppm was at least 80%. Also, the inhibition at 20 ppm in data set [2] is at least 80%. Besides, in data set [3], the pest or weed control at 200 ppm was at least 80%.

`FC(F)(F)c1nc(-c2ccc(Cn3cc(CNC(=S)C4CC4)cn3)s2)no1` [Compound 1.13, N-[[1-[[5-[5-(trifluoromethyl)-1,2,4-oxadiazol-3-yl]-2-thienyl]methyl]pyrazol-4-yl]methyl] cyclopropane carbothioamide] showed a melting point of 165.5 to 167 °C. Besides, the pest or weed control at 200 ppm in data set [1] is at least 80%. Moreover, the pest or weed control at 200 ppm with Phakopsora pachyrhizi was at least 80%. Besides, in data set [2], the inhibition at 20 ppm is at least 80%. Also, the pest or weed control at 200 ppm in data set [3] is at least 80%.

On to `COCC(=S)NCc1cnn(Cc2ccc(-c3noc(C(F)(F)F)n3)s2)c1` [Compound 1.14, 2-methoxy-N-[[1-[[5-[5-(trifluoromethyl)-1,2,4-oxadiazol-3-yl]-2-thienyl]methyl]pyrazol-4-yl]methyl]thioacetamide], for which the melting point fell in the range of 135.5 to 140.3 °C. Also, the pest or weed control at 200 ppm in data set [1] is at least 80%. The pest or weed control at 200 ppm with Phakopsora pachyrhizi was at least 80%. The inhibition at 20 ppm in data set [2] is at least 80%. Also, the pest or weed control at 200 ppm in data set [3] was at least 80%.

The values above are taken from US20210267204A1, “MICROBIOCIDAL OXADIAZOLE DERIVATIVES” (SYNGENTA CROP PROTECTION AG, priority 2018, published 2021).
